In patent publication US8772499B2, “TRPV3 modulators” (AbbVie Inc., priority 2011, dated 2014):
Where two headings read alike, the source gives them in different places.

Assays:
[1] = target: T1, human TRPV3 (Homo sapiens, UniProt Q8NET8); assay: In vitro antagonism of recombinant human TRPV3 activation (FLIPR Tetra calcium assay); format: cell-based; conditions: HEK293 cells stably expressing human TRPV3, agonist 2-APB at 80 μM
T1 construct: expressed in transfected cells
T1 sequence (Q8NET8 1-790): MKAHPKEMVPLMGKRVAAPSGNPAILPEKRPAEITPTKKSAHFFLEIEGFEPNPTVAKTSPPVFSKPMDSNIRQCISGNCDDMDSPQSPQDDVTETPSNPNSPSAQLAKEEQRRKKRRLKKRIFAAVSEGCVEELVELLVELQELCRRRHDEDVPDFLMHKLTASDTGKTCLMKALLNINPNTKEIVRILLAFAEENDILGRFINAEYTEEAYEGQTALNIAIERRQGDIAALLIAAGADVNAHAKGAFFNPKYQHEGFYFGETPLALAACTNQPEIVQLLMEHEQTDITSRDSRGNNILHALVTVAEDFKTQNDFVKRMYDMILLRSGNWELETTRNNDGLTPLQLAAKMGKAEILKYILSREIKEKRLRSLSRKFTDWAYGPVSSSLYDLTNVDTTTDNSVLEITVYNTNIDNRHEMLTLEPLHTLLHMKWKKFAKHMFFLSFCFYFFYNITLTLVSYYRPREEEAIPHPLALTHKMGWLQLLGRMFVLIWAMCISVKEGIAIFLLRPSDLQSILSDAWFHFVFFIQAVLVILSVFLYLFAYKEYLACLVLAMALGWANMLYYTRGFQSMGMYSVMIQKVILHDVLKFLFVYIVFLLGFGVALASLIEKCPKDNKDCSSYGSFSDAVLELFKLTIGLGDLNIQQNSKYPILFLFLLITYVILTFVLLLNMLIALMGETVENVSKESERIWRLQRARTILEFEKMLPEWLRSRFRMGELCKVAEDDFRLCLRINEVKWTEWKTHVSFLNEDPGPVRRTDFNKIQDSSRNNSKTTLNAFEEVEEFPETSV
Summary of the method: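 HEK293 cells stably expressing human TRPV3, loaded with Calcium-4 dye for 90–120 min, received compound in DPBS, then 80 μM 2-APB (EC80) 3 min later. Max-minus-min fluorescence expressed as % of 2-APB response without antagonist; IC50 values mostly averages of n≥2 runs.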

[2] = In vitro human microsomal stability assay; format: in vitro ADME
Summary of the method: (§1)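 Test compounds were incubated at 37° C. with Sprague-Dawley rat liver microsomes or with human liver microsomes. NADPH was supplied as cofactor and was also added to the time-zero plates.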

[3] = In vitro rat microsomal stability assay; format: in vitro ADME, rat (Sprague-Dawley)
Summary of the method: as §1

[4] = actual measured value shown parenthetically, in most cases average of at least two runs, read-out: IC50
[5] = reported range, read-out: IC50 (range class)
[6] = human liver microsomes, 0.5 μM substrate, 0.25 mg/mL microsomal protein, pH 7.4, 37° C., NADPH, 30 minutes
[7] = rat liver microsomes (Sprague-Dawley), 0.5 μM substrate, 0.25 mg/mL microsomal protein, pH 7.4, 37° C., NADPH, 30 minutes
[8] = human, microsomes, 0.5 h, 0.5 μM, pH 7.4
[9] = Sprague-Dawley, rat, microsomes, 0.5 h, 0.5 μM, pH 7.4

Row | SMILES | IC50 [1, 4] [µM] | IC50 [1, 5] [µM] | HUMAN MICROSOMAL STABILITY (% REMAINING AFTER 30 MINUTES) [2, 6] [%] | RAT MICROSOMAL STABILITY (% REMAINING AFTER 30 MINUTES) [3, 7] [%] | HUMAN MICROSOMAL STABILITY (% REMAINING AFTER 30 MINUTES) [2, 8] [%] | RAT MICROSOMAL STABILITY (% REMAINING AFTER 30 MINUTES) [3, 9] [%] | HUMAN […] (% REMAINING AFTER 30 MINUTES) [2, 6] [%] | RAT […] (% REMAINING AFTER 30 MINUTES) [3, 7] [%]
1 | CC(C)(C)OC(=O)N1CCC(c2cccc(OC(F)(F)F)c2)(C(O)c2ccccn2)CC1 (centres unmarked) [Example 158, tert-butyl 4-[hydroxy(pyridin-2-yl)methyl]-4-[3-(trifluoromethoxy)phenyl]-piperidine-1-carboxylate] | > 20 | > 20 | 3.7 | 0.04 | – | – | – | –
2 | O[C@@H](c1ccccn1)C1(c2ccc(OC(F)(F)F)cc2)CC(F)(F)C1 [Example 159, (R)-{3,3-difluoro-1-[4-(trifluoromethoxy)phenyl]cyclobutyl}(pyridin-2-yl)-methanol] | 1.98 | – | – | – | 45 | 65 | – | –
3 | O=C1CC(c2ccc(C(F)(F)F)cc2)(C(O)c2ccccn2)C1 (centres unmarked) [Example 160, 3-[hydroxy(pyridin-2-yl)methyl]-3-[4-(trifluoromethyl)phenyl]-cyclobutanone] | 6.11 | – | – | – | >85 | 60 | – | –
4 | OC(c1ccccn1)C1(c2ccc(C(F)(F)F)cc2)CC2(C1)OCCO2 (centres unmarked) [Example 161, pyridin-2-yl{2-[4-(trifluoromethyl)phenyl]-5,8-dioxaspiro[3.4]oct-2-yl}-methanol] | 3.27 | – | – | – | 61 | <0.01 | – | –
5 | OC(c1ccccn1)C1(C2CCCCC2)CCC1 (centres unmarked) [Example 162, (1-cyclohexylcyclobutyl)(pyridin-2-yl)methanol] | 3.88 | – | – | – | 0.02 | <0.01 | – | –
6 | OC(c1ccccn1)C1(C2CCCC2)CCC1 (centres unmarked) [Example 163, (1-cyclopentylcyclobutyl)(pyridin-2-yl)methanol] | 4.9 | – | – | – | 0.11 | <0.01 | – | –
7 | OC(C1CCc2cccnc21)C1(c2ccc(Cl)c(Cl)c2)CCC1 (stereo not drawn) [Example 167, (anti)-[1-(3,4-dichlorophenyl)cyclobutyl][6,7-dihydro-5H-cyclopenta[b]-pyridin-7-yl]methanol] | > 20 | > 20 | – | – | 9.5 | <0.01 | – | –
8 | OC(C1CCc2cccnc21)C1(c2ccc(Cl)c(Cl)c2)CCC1 (stereo not drawn) [Example 168, (syn)-[1-(3,4-dichlorophenyl)cyclobutyl][6,7-dihydro-5H-cyclopenta[b]-pyridin-7-yl]methanol] | 9.14 | – | – | – | 5.6 | <0.01 | – | –
9 | OC(C1CCc2cccnc21)C1(c2ccc(F)c(F)c2)CCC1 (stereo not drawn) [Example 171, (anti)-[1-(3,4-difluorophenyl)cyclobutyl][6,7-dihydro-5H-cyclopenta[b]-pyridin-7-yl]methanol] | > 20 | > 20 | – | – | 2.7 | <0.01 | – | –
10 | OC(C1CCc2cccnc21)C1(c2ccc(F)c(F)c2)CCC1 (stereo not drawn) [Example 172, (syn)-[1-(3,4-difluorophenyl)cyclobutyl][6,7-dihydro-5H-cyclopenta[b]-pyridin-7-yl]methanol] | > 20 | > 20 | – | – | 2.4 | <0.01 | – | –
11 | OC(C1CCc2cccnc21)C1(c2ccc(C(F)(F)F)cc2)CCC1 (stereo not drawn) [Example 173, (anti)-6,7-dihydro-5H-cyclopenta[b]pyridin-7-yl{1-[4-(trifluoromethyl)-phenyl]cyclobutyl}methanol] | > 20 | > 20 | – | – | 45 | <0.01 | – | –
12 | OC(C1CCc2cccnc21)C1(c2ccc(C(F)(F)F)cc2)CCC1 (stereo not drawn) [Example 174, (syn)-6,7-dihydro-5H-cyclopenta[b]pyridin-7-yl{1-[4-(trifluoromethyl)-phenyl]cyclobutyl}methanol] | > 20 | > 20 | – | – | 26 | <0.01 | – | –
13 | OC(C1CCc2cccnc21)C1(c2ccc(OC(F)(F)F)cc2)CCC1 (stereo not drawn) [Example 175, (anti)-6,7-dihydro-5H-cyclopenta[b]pyridin-7-yl{1-[4-(trifluoromethoxy)-phenyl]cyclobutyl}methanol] | > 20 | > 20 | – | – | 29 | <0.01 | – | –
14 | OC(C1CCc2cccnc21)C1(c2ccc(OC(F)(F)F)cc2)CCC1 (stereo not drawn) [Example 176, (syn)-6,7-dihydro-5H-cyclopenta[b]pyridin-7-yl{1-[4-(trifluoromethoxy)-phenyl]cyclobutyl}methanol] | > 20 | > 20 | – | – | 20 | <0.01 | – | –
15 | OC(C1CCc2cccnc21)C1(c2cccc(C(F)(F)F)c2)CCC1 (stereo not drawn) [Example 185, (anti)-6,7-dihydro-5H-cyclopenta[b]pyridin-7-yl{1-[3-(trifluoromethyl)-phenyl]cyclobutyl}methanol] | > 20 | > 20 | – | – | – | – | 0.39 | <0.01
16 | OC(C1CCc2cccnc21)C1(c2cccc(C(F)(F)F)c2)CCC1 (stereo not drawn) [Example 186, (syn)-6,7-dihydro-5H-cyclopenta[b]pyridin-7-yl{1-[3-(trifluoromethyl)-phenyl]cyclobutyl}methanol] | > 20 | > 20 | – | – | 0.18 | <0.01 | – | –
17 | OC(C1CCCc2cccnc21)C1(c2cccc(OC(F)(F)F)c2)CCC1 (stereo not drawn) [Example 187, (anti)-5,6,7,8-tetrahydroquinolin-8-yl{1-[3-(trifluoromethoxy)phenyl]-cyclobutyl}methanol] | > 20 | > 20 | – | – | <0.01 | <0.01 | – | –
18 | OC(C1CCCc2cccnc21)C1(c2cccc(OC(F)(F)F)c2)CCC1 (stereo not drawn) [Example 188, (syn)-5,6,7,8-tetrahydroquinolin-8-yl{1-[3-(trifluoromethoxy)phenyl]-cyclobutyl}methanol] | > 20 | > 20 | – | – | 0.16 | <0.01 | – | –
19 | OC(C1CCc2cccnc21)C1(c2cccc(OC(F)(F)F)c2)CCC1 (stereo not drawn) [Example 189, (anti)-6,7-dihydro-5H-cyclopenta[b]pyridin-7-yl{1-[3-(trifluoromethoxy)-phenyl]cyclobutyl}methanol] | > 20 | > 20 | – | – | 0.65 | <0.01 | – | –
20 | OC(C1CCc2cccnc21)C1(c2cccc(OC(F)(F)F)c2)CCC1 (stereo not drawn) [Example 190, (syn)-6,7-dihydro-5H-cyclopenta[b]pyridin-7-yl{1-[3-(trifluoromethoxy)-phenyl]cyclobutyl}methanol] | > 20 | > 20 | – | – | 3.7 | <0.01 | – | –
